Experimental findings from patent US20240174671A1, “New 2,3-Dihydro-1H-pyrrolo[3,2-b]pyridine Derivatives as Sigma Ligands” (ACONDICIONAMIENTO TARRASENSE, priority 2021, published 2024) are described below.

For one assay, the target named is T1, human σ2/TMEM97 receptor (Homo sapiens, UniProt Q5BJF2).
T1 construct: expressed in transfected cells; host or cells: HEK-293
Description: Binding assay to human σ2/TMEM97 receptor ([3H]-DTG). The following applies: transfected HEK-293 membranes, 10 nM [3H]-DTG, 25° C., 120 minutes; read-out: Binding σ-[…] (binding to σ2-receptor expressed as Ki). On the procedure:
Binding Assay to Human σ2/TMEM97 Receptor.
Transfected HEK-293 membranes (15 μg) were incubated with 10 nM [^3H]-1,3-Di-o-tolylguanidine (DTG) in assay buffer containing Tris-HCl 50 mM at pH 8.0. NSB (non-specific binding) was measured by adding 10 μM haloperidol. The binding of the test compound was measured at either one concentration (% inhibition at 1 or 10 µM) or five different concentrations to determine affinity values (Ki). Plates were incubated at 25° C. for 120 minutes. After the incubation period, the reaction mix was transferred to MultiScreen HTS, FC plates (Millipore), filtered and washed 3 times with ice-cold 10 mM Tris-HCL (pH 8.0). Filters were dried and counted at approximately 40% efficiency in a MicroBeta scintillation counter (Perkin-Elmer) using EcoScint liquid scintillation cocktail.

In another assay the target is T2, human σ1 receptor (Homo sapiens, UniProt Q99720).
T2 construct: expressed in transfected cells; host or cells: HEK-293
T2 sequence (Q99720 whole entry): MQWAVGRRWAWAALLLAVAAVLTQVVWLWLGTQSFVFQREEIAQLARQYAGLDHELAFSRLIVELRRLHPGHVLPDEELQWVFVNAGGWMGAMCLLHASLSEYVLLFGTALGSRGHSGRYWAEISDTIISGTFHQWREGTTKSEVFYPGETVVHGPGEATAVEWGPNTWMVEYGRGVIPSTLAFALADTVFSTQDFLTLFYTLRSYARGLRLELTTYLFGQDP
Description: Human σ1 receptor radioligand assay ([3H](+)-pentazocine). The format is binding. Here is the method: Human σ1 Receptor Radioligand Assay
NBS (non-specific binding) was measured by adding 10 μM haloperidol. The binding of the test compound was measured at either one concentration (% inhibition at 1 or 10 µM) or five different concentrations to determine affinity values (Ki). Plates were incubated at 37° C. for 120 minutes. After the incubation period, the reaction mix was then transferred to MultiScreen HTS, FC plates (Millipore), filtered and plates were washed 3 times with ice-cold 10 mM Tris-HCL (pH7.4). Filters were dried and counted at approximately 40% efficiency in a MicroBeta scintillation counter (Perkin-Elmer) using EcoScint liquid scintillation cocktail.

[1] abbreviates: transfected HEK-293 membranes, 5 nM [3H](+)-pentazocine, 37° C., 120 minutes, read-out: Binding σ-[…] (binding to σ1-receptor expressed as Ki).

Where two headings read alike, the source gives them in different places. Where only a bound is given, the exact number is not on record here.

T1 sequence (Q5BJF2 whole entry): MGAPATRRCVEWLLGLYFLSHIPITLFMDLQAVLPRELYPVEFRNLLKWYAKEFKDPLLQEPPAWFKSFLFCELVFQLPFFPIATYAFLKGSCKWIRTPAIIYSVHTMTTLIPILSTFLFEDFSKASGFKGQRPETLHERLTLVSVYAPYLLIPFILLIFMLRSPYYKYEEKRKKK

As usually defined, the Ki is the equilibrium dissociation constant of an inhibitor or competing ligand from its target. For the compound `Cc1ccc2c(n1)C(C)(C)CN2C(=O)NC1CCN(CCc2ccccc2)CC1` [Example 27, 3,3,5-trimethyl-N-(1-phenethylpiperidin-4-yl)-2,3-dihydro-1H-pyrrolo[3,2-b]pyridine-1-carboxamide], the Ki on human σ2/TMEM97 receptor is less than 100 nM; at human σ1 receptor, 100 to 500 nM.

With `CCOCCN1CCC(NC(=O)N2CC(C)(C)c3nc(C)ccc32)CC1` [Example 28, N-(1-(2-ethoxyethyl)piperidin-4-yl)-3,3,5-trimethyl-2,3-dihydro-1H-pyrrolo[3,2-b]pyridine-1-carboxamide], the Ki on human σ2/TMEM97 receptor is greater than 1000 nM; on human σ1 receptor (setting [1]), 100 to 500 nM.

Take `CN(Cc1ccccc1)C1CCN(C(=O)N2CC(C)(C)c3ncccc32)CC1` [Example 29, (4-(benzyl(methyl)amino)piperidin-1-yl)(3,3-dimethyl-2,3-dihydro-1H-pyrrolo[3,2-b]pyridin-1-yl)methanone]: the inhibition constant (Ki) on human σ2/TMEM97 receptor was less than 100 nM; at human σ1 receptor (setting [1]), 100 to 500 nM.

Take `CC1(C)CN(C(=O)NC2CCN(Cc3ccccc3)CC2)c2cc(F)cnc21` [Example 31, N-(1-benzylpiperidin-4-yl)-6-fluoro-3,3-dimethyl-2,3-dihydro-1H-pyrrolo[3,2-b]pyridine-1-carboxamide]: the inhibition constant (Ki) at human σ2/TMEM97 receptor is 500 to 1000 nM; at human σ1 receptor (setting [1]), less than 100 nM.

Regarding `CC1(C)CN(C(=O)NC2CCN(Cc3ccccc3)CC2)c2cccnc21` [Example 32, N-(1-benzylpiperidin-4-yl)-3,3-dimethyl-2,3-dihydro-1H-pyrrolo[3,2-b]pyridine-1-carboxamide], the figures for the Ki at human σ2/TMEM97 receptor and on human σ1 receptor (setting [1]) were greater than 1000 nM and less than 100 nM, respectively.

Regarding `Cc1ccc2c(n1)C(C)(C)CN2C(=O)NC[C@@H](c1ccc(F)cc1)N(C)C` [Example 33, (R)—N-(2-(dimethylamino)-2-(4-fluorophenyl)ethyl)-3,3,5-trimethyl-2,3-dihydro-1H-pyrrolo[3,2-b]pyridine-1-carboxamide], the values for the Ki at human σ2/TMEM97 receptor and on human σ1 receptor (setting [1]) were greater than 1000 nM and less than 100 nM, respectively.

As to `Cc1ccc2c(n1)C(C)(C)CN2C(=O)NC[C@@H](c1cccc(F)c1)N(C)C` [Example 34, (R)—N-(2-(dimethylamino)-2-(3-fluorophenyl)ethyl)-3,3,5-trimethyl-2,3-dihydro-1H-pyrrolo[3,2-b]pyridine-1-carboxamide], the inhibition constant (Ki) on human σ2/TMEM97 receptor is greater than 1000 nM; at human σ1 receptor (setting [1]), 100 to 500 nM.

With `COc1cccc([C@H](CNC(=O)N2CC(C)(C)c3nc(C)ccc32)N(C)C)c1` [Example 35, (R)—N-(2-(dimethylamino)-2-(3-methoxyphenyl)ethyl)-3,3,5-trimethyl-2,3-dihydro-1H-pyrrolo[3,2-b]pyridine-1-carboxamide], the Ki was greater than 1000 nM on human σ2/TMEM97 receptor and 100 to 500 nM at human σ1 receptor (setting [1]).

`Cc1ccc2c(n1)C(C)(C)CN2C(=O)N1C[C@H]2CN(Cc3ccccc3)C[C@H]2C1` [Example 36, ((3aR,6aS)-5-benzylhexahydropyrrolo[3,4-c]pyrrol-2(1H)-yl)(3,3,5-trimethyl-2,3-dihydro-1H-pyrrolo[3,2-b]pyridin-1-yl)methanone]: the Ki lay within 500 to 1000 nM at human σ2/TMEM97 receptor and 100 to 500 nM on human σ1 receptor (setting [1]).

For the compound `Cc1ccc2c(n1)C(C)(C)CN2C(=O)N1CCC2(CCN(Cc3ccccc3)C2)C1` (stereo not drawn) [Example 37, (7-benzyl-2,7-diazaspiro[4.4]nonan-2-yl)(3,3,5-trimethyl-2,3-dihydro-1H-pyrrolo[3,2-b]pyridin-1-yl)methanone], the Ki at human σ2/TMEM97 receptor was less than 100 nM; on human σ1 receptor (setting [1]), 100 to 500 nM.

For `Cc1ccc2c(n1)C(C)(C)CN2C(=O)N1CCC2(CCN(Cc3ccccc3)C2)CC1` [Example 38, (2-benzyl-2,8-diazaspiro[4.5]decan-8-yl)(3,3,5-trimethyl-2,3-dihydro-1H-pyrrolo[3,2-b]pyridin-1-yl)methanone], the results for the Ki on human σ2/TMEM97 receptor and at human σ1 receptor (setting [1]) were less than 100 nM and 100 to 500 nM, respectively.

In the case of `Cc1ccc2c(n1)C(C)(C)CN2C(=O)N1CC[C@H](N(C)Cc2ccccc2)C1` [Example 39, (S)-(3-(benzyl(methyl)amino)pyrrolidin-1-yl)(3,3,5-trimethyl-2,3-dihydro-1H-pyrrolo[3,2-b]pyridin-1-yl)methanone], the Ki on human σ2/TMEM97 receptor was greater than 1000 nM; on human σ1 receptor (setting [1]) it was 100 to 500 nM.

As to `CN(Cc1ccccc1)C1CCN(C(=O)N2CC(C)(C)c3nc(C#N)ccc32)CC1` [Example 40, 1-(4-(benzyl(methyl)amino)piperidine-1-carbonyl)-3,3-dimethyl-2,3-dihydro-1H-pyrrolo[3,2-b]pyridine-5-carbonitrile], the Ki on human σ2/TMEM97 receptor and on human σ1 receptor (setting [1]) was less than 100 nM in each case.

With `Cc1ccc2c(n1)C(C)(C)CN2C(=O)NC1CCN(CC(C)C)CC1` [Example 41, N-(1-isobutylpiperidin-4-yl)-3,3,5-trimethyl-2,3-dihydro-1H-pyrrolo[3,2-b]pyridine-1-carboxamide], the Ki on human σ2/TMEM97 receptor was greater than 1000 nM; on human σ1 receptor (setting [1]) it was 100 to 500 nM.

With `Cc1ccc2c(n1)C(C)(C)CN2C(=O)NC1CCN(CC2CCOCC2)CC1` [Example 42, 3,3,5-trimethyl-N-(1-((tetrahydro-2H-pyran-4-yl)methyl)piperidin-4-yl)-2,3-dihydro-1H-pyrrolo[3,2-b]pyridine-1-carboxamide], the Ki was greater than 1000 nM on human σ2/TMEM97 receptor and 100 to 500 nM on human σ1 receptor (setting [1]).

For the compound `Cc1ccc2c(n1)C(C)(C)CN2C(=O)N1CC[C@@H](N(C)Cc2ccccc2)C1` [Example 43, (R)-(3-(benzyl(methyl)amino)pyrrolidin-1-yl)(3,3,5-trimethyl-2,3-dihydro-1H-pyrrolo[3,2-b]pyridin-1-yl)methanone], the Ki on human σ2/TMEM97 receptor is greater than 1000 nM; at human σ1 receptor (setting [1]) it was 500 to 1000 nM.

In the case of `Cc1ccc2c(n1)C(C)(C)CN2C(=O)NC1CCN(Cc2ccc(F)c(F)c2)CC1` [Example 44, N-(1-(3,4-difluorobenzyl)piperidin-4-yl)-3,3,5-trimethyl-2,3-dihydro-1H-pyrrolo[3,2-b]pyridine-1-carboxamide], the results for the Ki on human σ2/TMEM97 receptor and at human σ1 receptor (setting [1]) were greater than 1000 nM and less than 100 nM, respectively.

As for `CN(Cc1ccc(F)c(C#N)c1)C1CCN(C(=O)N2CC(C)(C)c3ncccc32)CC1` [Example 45, 5-(((1-(3,3-dimethyl-2,3-dihydro-1H-pyrrolo[3,2-b]pyridine-1-carbonyl)piperidin-4-yl)(methyl)amino)methyl)-2-fluorobenzonitrile], the Ki at human σ2/TMEM97 receptor is less than 100 nM; on human σ1 receptor (setting [1]), greater than 1000 nM.

Consider `CC1(C)CN(C(=O)NC2CCN(Cc3ccc(F)c(F)c3)CC2)c2cccnc21` [Example 46, N-(1-(3,4-difluorobenzyl)piperidin-4-yl)-3,3-dimethyl-2,3-dihydro-1H-pyrrolo[3,2-b]pyridine-1-carboxamide], for which the figures for the Ki at human σ2/TMEM97 receptor and at human σ1 receptor (setting [1]) were greater than 1000 nM and less than 100 nM, respectively.

Regarding `CC1(C)CN(C(=O)NC2CCN(Cc3cccc(F)c3)CC2)c2cccnc21` [Example 47, N-(1-(3-fluorobenzyl)piperidin-4-yl)-3,3-dimethyl-2,3-dihydro-1H-pyrrolo[3,2-b]pyridine-1-carboxamide], the Ki at human σ2/TMEM97 receptor is greater than 1000 nM; on human σ1 receptor (setting [1]), less than 100 nM.

As for `CC1(C)CN(C(=O)NC2CCN(Cc3ccc(F)cc3)CC2)c2cccnc21` [Example 48, N-(1-(4-fluorobenzyl)piperidin-4-yl)-3,3-dimethyl-2,3-dihydro-1H-pyrrolo[3,2-b]pyridine-1-carboxamide], the results for the Ki at human σ2/TMEM97 receptor and at human σ1 receptor (setting [1]) were greater than 1000 nM and less than 100 nM, respectively.

On to `Cc1ccc2c(n1)CCN2C(=O)N1CCC(N(C)Cc2ccccc2)CC1` [Example 49], for which the Ki on human σ2/TMEM97 receptor and at human σ1 receptor (setting [1]) was 100 to 500 nM in each case.

`Cc1ccc2c(n1)C(C)(C)CN2C(=O)N1CCC(N(C)CCc2ccccc2)CC1` [Example 50, (4-(methyl(phenethyl)amino)piperidin-1-yl)(3,3,5-trimethyl-2,3-dihydro-1H-pyrrolo[3,2-b]pyridin-1-yl)methanone]: the Ki was less than 100 nM at human σ2/TMEM97 receptor and 100 to 500 nM at human σ1 receptor (setting [1]).

Take `CN(Cc1ccccc1)C1CCN(C(=O)N2CCc3ncccc32)CC1` [Example 51, (4-(benzyl(methyl)amino)piperidin-1-yl)(2,3-dihydro-1H-pyrrolo[3,2-b]pyridin-1-yl)methanone]: the Ki was 100 to 500 nM at human σ2/TMEM97 receptor and less than 100 nM at human σ1 receptor (setting [1]).

On to `CN(CCc1ccccc1)C1CCN(C(=O)N2CC(C)(C)c3ncccc32)CC1` [Example 52, (3,3-dimethyl-2,3-dihydro-1H-pyrrolo[3,2-b]pyridin-1-yl)(4-(methyl(phenethyl)amino)piperidin-1-yl)methanone], for which the Ki on human σ2/TMEM97 receptor was less than 100 nM; at human σ1 receptor (setting [1]) it was 100 to 500 nM.

In the case of `CN(CCc1ccccc1)[C@H]1CCCN(C(=O)N2CCc3ncccc32)C1` [Example 53, (S)-(2,3-dihydro-1H-pyrrolo[3,2-b]pyridin-1-yl)(3-(methyl(phenethyl)amino)piperidin-1-yl)methanone], the Ki at human σ2/TMEM97 receptor and on human σ1 receptor (setting [1]) was 100 to 500 nM throughout.

Regarding `Cc1ccc2c(n1)C(C)(C)CN2C(=O)N1CCC[C@H](N(C)CCc2ccccc2)C1` [Example 54, (S)-(3-(methyl(phenethyl)amino)piperidin-1-yl)(3,3,5-trimethyl-2,3-dihydro-1H-pyrrolo[3,2-b]pyridin-1-yl)methanone], the Ki was less than 100 nM at human σ2/TMEM97 receptor and 100 to 500 nM on human σ1 receptor.
